Reference: ChEMBL document CHEMBL2346657, “Synthesis of novel 2-amino-4-(5'-substituted 2'-phenyl-1H-indol-3'-yl)-6-aryl-4H-pyran-3-carbonitrile derivatives as antimicrobial and antioxidant agents” (2013)
Activity calls are given as the source filed them. The rule behind the calls is not given here.

How the values were obtained:
Assay type in all cases: functional
[1] = test system: Aspergillus niger; experiment: Antimicrobial activity against Aspergillus niger MTCC 281 at 1000 ug/ml after 72 hrs by cup plate method; conditions: MTCC 281, 72 h, read-out: IZ
[2] = test system: Aspergillus terreus; experiment: Antimicrobial activity against Aspergillus terreus MTCC 1782 at 750 ug/ml after 72 hrs by cup plate method; conditions: MTCC 1782, 72 h, read-out: IZ
[3] = test system: Escherichia coli; experiment: Antimicrobial activity against Escherichia coli MTCC 723 at 500 ug/ml after 24 hrs by cup plate method; conditions: MTCC 723, 24 h, read-out: IZ
[4] = test system: Pseudomonas aeruginosa; experiment: Antimicrobial activity against Pseudomonas aeruginosa MTCC 1688 at 500 ug/ml after 24 hrs by cup plate method; conditions: MTCC 1688, 24 h, read-out: IZ
[5] = test system: Aspergillus flavus; experiment: Antimicrobial activity against Aspergillus flavus MTCC 1973 at 750 ug/ml after 72 hrs by cup plate method; conditions: MTCC 1973, 72 h, read-out: IZ
[6] = test system: Aspergillus niger; experiment: Antimicrobial activity against Aspergillus niger MTCC 281 at 500 ug/ml after 72 hrs by cup plate method; conditions: MTCC 281, 72 h, read-out: IZ
[7] = test system: Pseudomonas aeruginosa; experiment: Antimicrobial activity against Pseudomonas aeruginosa MTCC 1688 at 750 ug/ml after 24 hrs by cup plate method; conditions: MTCC 1688, 24 h, read-out: IZ
[8] = test system: Escherichia coli; experiment: Antimicrobial activity against Escherichia coli MTCC 723 at 1000 ug/ml after 24 hrs by cup plate method; conditions: MTCC 723, 24 h, read-out: IZ
[9] = test system: Aspergillus oryzae; experiment: Antimicrobial activity against Aspergillus oryzae MTCC 3567 at 750 ug/ml after 72 hrs by cup plate method; conditions: MTCC 3567, 72 h, read-out: IZ
[10] = test system: Escherichia coli; experiment: Antimicrobial activity against Escherichia coli MTCC 723 at 750 ug/ml after 24 hrs by cup plate method; conditions: MTCC 723, 24 h, read-out: IZ
[11] = test system: Aspergillus flavus; experiment: Antimicrobial activity against Aspergillus flavus MTCC 1973 at 1000 ug/ml after 72 hrs by cup plate method; conditions: MTCC 1973, 72 h, read-out: IZ
[12] = test system: Staphylococcus aureus; experiment: Antimicrobial activity against Staphylococcus aureus ATCC 29513 at 1000 ug/ml after 24 hrs by cup plate method; conditions: ATCC 29513, 24 h, read-out: IZ
[13] = test system: Aspergillus terreus; experiment: Antimicrobial activity against Aspergillus terreus MTCC 1782 at 1000 ug/ml after 72 hrs by cup plate method; conditions: MTCC 1782, 72 h, read-out: IZ
[14] = test system: Staphylococcus aureus; experiment: Antimicrobial activity against Staphylococcus aureus ATCC 29513 at 750 ug/ml after 24 hrs by cup plate method; conditions: ATCC 29513, 24 h, read-out: IZ
[15] = test system: Klebsiella pneumoniae; experiment: Antimicrobial activity against Klebsiella pneumoniae NCTC 13368 at 750 ug/ml after 24 hrs by cup plate method; conditions: NCTC 13368, 24 h, read-out: IZ
[16] = test system: Aspergillus niger; experiment: Antimicrobial activity against Aspergillus niger MTCC 281 at 750 ug/ml after 72 hrs by cup plate method; conditions: MTCC 281, 72 h, read-out: IZ
[17] = test system: Klebsiella pneumoniae; experiment: Antimicrobial activity against Klebsiella pneumoniae NCTC 13368 at 1000 ug/ml after 24 hrs by cup plate method; conditions: NCTC 13368, 24 h, read-out: IZ
[18] = test system: Pseudomonas aeruginosa; experiment: Antimicrobial activity against Pseudomonas aeruginosa MTCC 1688 at 1000 ug/ml after 24 hrs by cup plate method; conditions: MTCC 1688, 24 h, read-out: IZ
[19] = Antioxidant activity assessed as metal chelating activity by measuring inhibition of ferrozine-Fe2+ complex formation at 25 to 100 ug/ml
[20] = test system: Aspergillus terreus; experiment: Antimicrobial activity against Aspergillus terreus MTCC 1782 at 500 ug/ml after 72 hrs by cup plate method; conditions: MTCC 1782, 72 h, read-out: IZ
[21] = test system: Aspergillus oryzae; experiment: Antimicrobial activity against Aspergillus oryzae MTCC 3567 at 1000 ug/ml after 72 hrs by cup plate method; conditions: MTCC 3567, 72 h, read-out: IZ
[22] = test system: Aspergillus flavus; experiment: Antimicrobial activity against Aspergillus flavus MTCC 1973 at 500 ug/ml after 72 hrs by cup plate method; conditions: MTCC 1973, 72 h, read-out: IZ
[23] = test system: Aspergillus oryzae; experiment: Antimicrobial activity against Aspergillus oryzae MTCC 3567 at 500 ug/ml after 72 hrs by cup plate method; conditions: MTCC 3567, 72 h, read-out: IZ
[24] = test system: Klebsiella pneumoniae; experiment: Antimicrobial activity against Klebsiella pneumoniae NCTC 13368 at 500 ug/ml after 24 hrs by cup plate method; conditions: NCTC 13368, 24 h, read-out: IZ
[25] = test system: Staphylococcus aureus; experiment: Antimicrobial activity against Staphylococcus aureus ATCC 29513 at 500 ug/ml after 24 hrs by cup plate method; conditions: ATCC 29513, 24 h, read-out: IZ

| Compound | zone of inhibition at 1000 µg/mL [1] [mm] | zone of inhibition at 750 µg/mL [2] [mm] | zone of inhibition at 500 µg/mL [3] [mm] | zone of inhibition at 500 µg/mL [4] [mm] | zone of inhibition at 750 µg/mL [5] [mm] | zone of inhibition at 500 µg/mL [6] [mm] | zone of inhibition at 750 µg/mL [7] [mm] | zone of inhibition at 1000 µg/mL [8] [mm] | zone of inhibition at 750 µg/mL [9] [mm] | zone of inhibition at 750 µg/mL [10] [mm] | zone of inhibition at 1000 µg/mL [11] [mm] | zone of inhibition at 1000 µg/mL [12] [mm] | zone of inhibition at 1000 µg/mL [13] [mm] | zone of inhibition at 750 µg/mL [14] [mm] | zone of inhibition at 750 µg/mL [15] [mm] | zone of inhibition at 750 µg/mL [16] [mm] | zone of inhibition at 1000 µg/mL [17] [mm] | zone of inhibition at 1000 µg/mL [18] [mm] | Activity [19] | zone of inhibition at 500 µg/mL [20] [mm] | also measured |
| --- | --- | --- | --- | --- | --- | --- | --- | --- | --- | --- | --- | --- | --- | --- | --- | --- | --- | --- | --- | --- | --- |
| N#Cc1c(N)c2c(N)c3c(nc2oc1=O)OC(c1ccc(Cl)cc1)=CC3c1c(-c2ccccc2)[nH]c2ccccc12 (stereo not given) | 5 | 10 | 3 | 10 | 0 | 7 | 9 | 12 | 13 | 3 | 8 | 12 | 11 | 11 | 13 | 5 | 13 | 9 | Active | 10 | zone of inhibition at 1000 µg/mL [21]: 13 mm; zone of inhibition at 500 µg/mL [22]: 0 mm; zone of inhibition at 500 µg/mL [23]: 12 mm; zone of inhibition at 500 µg/mL [24]: 13 mm; zone of inhibition at 500 µg/mL [25]: 12 mm |
| Cc1ccc(C2=CC(c3c(-c4ccccc4)[nH]c4ccc(C)cc34)C(C#N)=C(N)O2)cc1 (stereo not given) | 0 | 9 | 8 | 10 | 0 | 0 | 10 | 3 | 13 | 4 | 0 | 14 | 9 | 14 | 9 | 0 | 9 | 8 | Active | 0 | zone of inhibition at 1000 µg/mL [21]: 13 mm; zone of inhibition at 500 µg/mL [22]: 0 mm; zone of inhibition at 500 µg/mL [23]: 12 mm; zone of inhibition at 500 µg/mL [24]: 9 mm; zone of inhibition at 500 µg/mL [25]: 14 mm |
| Cc1ccc(C2=CC(c3c(-c4ccccc4)[nH]c4ccc(C)cc34)c3c(nc4oc(=O)c(C#N)c(N)c4c3N)O2)cc1 (stereo not given) | 0 | 4 | 10 | 9 | 12 | 0 | 6 | 10 | 11 | 10 | 13 | 0 | 4 | 3 | 10 | 0 | 10 | 4 | Active | 9 | zone of inhibition at 1000 µg/mL [21]: 10 mm; zone of inhibition at 500 µg/mL [22]: 12 mm; zone of inhibition at 500 µg/mL [23]: 10 mm; zone of inhibition at 500 µg/mL [24]: 11 mm; zone of inhibition at 500 µg/mL [25]: 3 mm |
| Cc1ccc(C2=CC(c3c(-c4ccccc4)[nH]c4ccc(Cl)cc34)c3c(N)nc(=S)[nH]c3O2)cc1 (stereo not given) | 10 | 8 | 10 | 10 | 3 | 10 | 10 | 9 | 2 | 9 | 3 | 2 | 8 | 3 | 10 | 10 | 9 | 10 | Active | 9 | zone of inhibition at 1000 µg/mL [21]: 2 mm; zone of inhibition at 500 µg/mL [22]: 3 mm; zone of inhibition at 500 µg/mL [23]: 3 mm; zone of inhibition at 500 µg/mL [24]: 10 mm; zone of inhibition at 500 µg/mL [25]: 6 mm |
| Cc1ccc(C2=CC(c3c(-c4ccccc4)[nH]c4ccccc34)c3c(N)n[nH]c3O2)cc1 (stereo not given) | 5 | 4 | 8 | 8 | 2 | 9 | 6 | 8 | 7 | 8 | 8 | 3 | 4 | 3 | 3 | 9 | 2 | 6 | Active | 4 | zone of inhibition at 1000 µg/mL [21]: 7 mm; zone of inhibition at 500 µg/mL [22]: 3 mm; zone of inhibition at 500 µg/mL [23]: 7 mm; zone of inhibition at 500 µg/mL [24]: 4 mm; zone of inhibition at 500 µg/mL [25]: 5 mm |
| Nc1nc(=S)[nH]c2c1C(c1c(-c3ccccc3)[nH]c3ccccc13)C=C(c1ccccc1)O2 (stereo not given) | 14 | 5 | 10 | 2 | 9 | 12 | 2 | 11 | 8 | 10 | 9 | 0 | 5 | 2 | 8 | 12 | 8 | 2 | Active | 5 | zone of inhibition at 1000 µg/mL [21]: 8 mm; zone of inhibition at 500 µg/mL [22]: 9 mm; zone of inhibition at 500 µg/mL [23]: 9 mm; zone of inhibition at 500 µg/mL [24]: 9 mm; zone of inhibition at 500 µg/mL [25]: 2 mm |
